In patent publication US20240360179A1, “STAPLED PEPTIDES AND METHODS THEREOF” (FOG PHARMACEUTICALS, INC., priority 2021, published 2024):
Like-named read-outs stand apart in the source and are kept apart here.

How the values were obtained:
[1] = molecular target: T1, TCF/LEF luciferase reporter in DLD1 cells (Homo sapiens, UniProt P35222); experiment: TCF reporter assay in DLD1 cells (4% or 20% FBS); type: cell-based
T1 sequence (P35222 2-781): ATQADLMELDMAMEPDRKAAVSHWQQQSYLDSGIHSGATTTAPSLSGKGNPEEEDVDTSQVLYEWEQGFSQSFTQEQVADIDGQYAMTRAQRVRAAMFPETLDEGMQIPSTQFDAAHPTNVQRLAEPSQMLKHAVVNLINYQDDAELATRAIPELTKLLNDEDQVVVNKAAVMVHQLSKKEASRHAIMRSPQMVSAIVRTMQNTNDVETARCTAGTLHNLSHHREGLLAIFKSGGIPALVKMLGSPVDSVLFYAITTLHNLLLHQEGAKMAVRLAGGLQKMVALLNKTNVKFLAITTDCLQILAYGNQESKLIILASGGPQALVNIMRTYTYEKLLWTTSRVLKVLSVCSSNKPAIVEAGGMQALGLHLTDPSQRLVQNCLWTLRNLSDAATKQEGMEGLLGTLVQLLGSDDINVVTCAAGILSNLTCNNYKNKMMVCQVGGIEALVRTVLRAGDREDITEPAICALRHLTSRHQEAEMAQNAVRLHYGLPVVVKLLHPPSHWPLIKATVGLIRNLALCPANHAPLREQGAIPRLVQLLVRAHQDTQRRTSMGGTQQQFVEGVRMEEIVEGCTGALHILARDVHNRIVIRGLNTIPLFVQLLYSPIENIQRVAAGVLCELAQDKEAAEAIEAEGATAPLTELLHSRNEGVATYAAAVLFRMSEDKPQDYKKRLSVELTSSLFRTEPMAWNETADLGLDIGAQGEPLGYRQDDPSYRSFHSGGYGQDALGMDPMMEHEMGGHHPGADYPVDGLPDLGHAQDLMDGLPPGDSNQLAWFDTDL

[2] = tested on: HAP1 CTNNB1 knockout cells; experiment: qPCR in HAP1 beta-catenin KO cells; type: cell-based
[3] = tested on: beta-catenin driven transcription in HAP1 WT cells; experiment: qPCR of beta-catenin driven transcription in HAP1 WT cells (CHIR treated); type: cell-based; conditions: 24-hour treatment
[4] = molecular target: T2, full-length B-Catenin (Uniprot ID P35222) (Homo sapiens, UniProt P35222); type: binding
T2 construct: 10 nM full-length B-Catenin (Uniprot ID P35222)
T2 sequence (P35222 1-781): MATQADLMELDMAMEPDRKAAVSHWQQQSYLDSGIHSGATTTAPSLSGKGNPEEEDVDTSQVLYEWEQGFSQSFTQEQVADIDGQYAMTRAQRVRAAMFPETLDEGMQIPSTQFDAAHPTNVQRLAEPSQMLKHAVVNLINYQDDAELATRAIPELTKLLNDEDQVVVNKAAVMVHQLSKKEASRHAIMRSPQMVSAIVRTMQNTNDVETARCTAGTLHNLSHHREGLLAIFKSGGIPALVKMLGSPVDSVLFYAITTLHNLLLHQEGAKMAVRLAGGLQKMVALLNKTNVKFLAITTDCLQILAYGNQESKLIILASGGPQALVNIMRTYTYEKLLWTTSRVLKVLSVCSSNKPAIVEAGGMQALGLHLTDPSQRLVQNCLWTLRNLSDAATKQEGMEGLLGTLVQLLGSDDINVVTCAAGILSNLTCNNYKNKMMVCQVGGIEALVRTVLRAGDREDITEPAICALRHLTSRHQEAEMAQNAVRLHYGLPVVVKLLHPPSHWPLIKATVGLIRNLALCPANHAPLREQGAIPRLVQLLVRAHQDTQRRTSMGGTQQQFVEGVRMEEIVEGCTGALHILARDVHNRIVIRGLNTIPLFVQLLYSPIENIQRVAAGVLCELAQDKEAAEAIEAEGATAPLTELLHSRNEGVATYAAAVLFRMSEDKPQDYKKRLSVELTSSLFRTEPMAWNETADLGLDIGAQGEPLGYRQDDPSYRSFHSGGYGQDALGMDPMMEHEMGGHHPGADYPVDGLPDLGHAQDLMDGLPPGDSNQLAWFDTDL

COLO320DM cells = experiment: COLO320DM proliferation assay (CellTiter-Glo); type: cell-based, human; conditions: read-out: COLO320DM Proliferation Abs IC50
In short: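 COLO320DM cells, 250 cells/well in RPMI-1640 with 4% FBS, attached 18-22 h, then exposed 96 h at 37 °C, 5% CO2 to 7-point 1/2 dilutions from 20 uM to 313 nM. Viability by CellTiter-Glo luminescence; IC50 derived from the dose curve.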

[5] = molecular target: T3, beta-catenin/TCF4 interaction (Homo sapiens, UniProt P35222); type: cell-based; conditions: read-out: NanoBRET Abs IC50
T3 construct: host or cells: HEK293
T3 sequence (P35222 1-781): T2 sequence (P35222 1-781)

[6] = read-out: DLD1 4% Abs IC50, DLD1 TCF reporter, 4% FBS
[7] = read-out: DLD1 4% Abs IC50, DLD1 TCF reporter, 4% FBS, absolute IC50
[8] = read-out: beta-catenin TCF4 DLD1 cell reporter assay IC50
[9] = read-out: beta-catenin TCF4 competition FP assay IC50

Compound	IC50 [1, 6]	other results
Ac-PL3-Glu-Npg-B5-Glu-3COOHF-Aib-Ala-Phe-Lys*3-PyrS2-2F3MeF-BztA-GlnR*3-Ala-NH2 [I-291]	1000 to 5000 nM	–
Ac-PL3-Asn-Npg-B5-Asp-3COOHF-Ala-Ala-Phe-Lys*3-PyrS2-2F3MeF-BztA-GlnR*3-Leu-Ser-NH2 [I-142]	> 5000 nM	–
Ac-PL3-aThr-Npg-B5-Asp-3COOHF-Aib-Ala-Phe-Lys*3-PyrS2-3Thi-BztA-GlnR*3-Ala-NH2 [I-163]	> 5000 nM	–
Ac-PL3-Asp-Npg-B5-Asp-3COOHF-Ala-Ala-Phe-Lys*3-PyrS2-3Thi-BztA-hGlnR*3-Ala-NH2 [I-183]	1000 to 5000 nM	–
Cc1c[nH]c(-c2cnc(NCCNc3ccc(C#N)cn3)nc2-c2ccc(Cl)cc2Cl)n1 [CHIR, CHIR99021, reference compound]	–	expression of AXIN2, SP5, or RNF43 [2]: neither CHIR nor peptide A and I-66 affected; beta-catenin protein levels [3]: more than two-fold
Ac-PL3-Asp-Npg-B5-Asp-TfeGA-Ala-Ala-Phe-Lys*3-PyrS2-2F3MeF-BztA-GlnR*3-Val-NH2 [I-129]	1000 to 5000 nM	–
Ac-PL3-Asp-Npg-B5-Asp-3COOHF-Aib-Ala-Phe-sAla*3-PyrS2-3Thi-BztA-TriAzLys*3-Ala-NH2 [I-336]	–	IC50 [1, 7]: 1000 to 5000 nM
Ac-PL3-Asp-Npg-B5-Asp-3COOHF-Aib-Ala-Phe-Lys*3-PyrS2-2F3MeF-BztA-GlnR*3-Ala-NH2 [I-69]	≤ 1000 nM	IC50 ([4]; read-out: beta-Catenin FP IC50): < 50 nM; IC50 (COLO320DM cells): ≤ 10000 nM
Ac-PL3-Asp-Cha-B5-Asp-3COOHF-Ala-Ala-Phe-Lys*3-PyrS2-2F3MeF-BztA-GlnR*3-Leu-NH2 [I-106]	≤ 1000 nM	–
Ac-PL3-Asp-Npg-B5-Asp-3COOHF-Aib-Ala-Phe-[2_6-naph]Cys-PyrS2-3Thi-BztA-Cys-Ala-NH2 [I-566]	–	IC50 [1, 8]: > 20000 nM; IC50 [4, 9]: 58 nM
Ac-PL3-Asp-Npg-B5-Asp-3COOHF-Ala-Aib-Phe-Lys*3-PyrS2-3Thi-BztA-GlnR*3-Ala-NH2 [I-442]	–	IC50 [5]: > 10000 nM
Ac-PL3-Asn-Npg-B5-Asp-3COOHF-Aib-Ala-Phe-Lys*3-PyrS2-2F3MeF-BztA-GlnR*3-Leu-Ser-NH2 [I-144]	1000 to 5000 nM	–
Ac-PL3-Asp-Npg-B5-Asp-3COOHF-Aib-Ala-Phe-[3_3-biph]Cys-PyrS2-3Thi-BztA-Cys-Ala-NH2 [I-567]	–	IC50 [1, 8]: > 20000 nM; IC50 [4, 9]: 120 nM
5hexenyl-MePro-Asp-AllylGly-R5-Asp-3COOHF-Aib-Ala-Phe-Lys*3-PyrS2-3Thi-BztA-GlnR*3-Ala-NH2 [I-430]	–	IC50 [5]: > 10000 nM
Ac-PL3-Asp-Npg-B5-Asp-3COOHF-CyLeu-Ala-Phe-Lys*3-PyrS2-2F3MeF-BztA-GlnR*3-Leu-Ser-NH2 [I-141]	≤ 1000 nM	–
Ac-PL3-Asp-Npg-B5-Asp-3COOHF-Npg-Ala-Phe-Lys*3-PyrS2-2F3MeF-BztA-GlnR*3-Ala-NH2 [I-99]	≤ 1000 nM	–
Ac-PL3-Asp-Npg-B5-Asp-3COOHF-Aib-Ala-Phe-Lys*3-PyrS2-2F3MeF-BztA-GlnR*3-Leu-Ser-NH2 [I-138]	≤ 1000 nM	IC50 (COLO320DM cells): ≤ 10000 nM
Ac-PL3-Asp-Npg-B5-Asp-3COOHF-Ala-Ala-Phe-TriAzLys*3-PyrS2-3Thi-BztA-sAla*3-Ala-NH2 [I-337]	–	IC50 [1, 7]: ≤ 1000 nM
Ac-PL3-Asp-Npg-B5-Asp-TfeGA-Ala-Ala-Phe-Lys*3-PyrS2-2F3MeF-BztA-GlnR*3-Leu-NH2 [I-128]	1000 to 5000 nM	–
Ac-PL3-Asp-Npg-B5-Asp-3COOHF-Ala-Ala-Phe-sAla*3-PyrS2-3Thi-BztA-TriAzLys*3-Ala-NH2 [I-338]	–	IC50 [1, 7]: ≤ 1000 nM
Ac-PL3-Asp-Npg-B5-Asp-3COOHF-nLeu-Ala-Phe-Lys*3-PyrS2-3Thi-BztA-GlnR*3-Ala-NH2 [I-70]	≤ 1000 nM	IC50 (COLO320DM cells): ≤ 10000 nM
Ac-PL3-Asp-Npg-B5-Asp-3COOHF-Cbg-Ala-Phe-Lys*3-PyrS2-2F3MeF-BztA-GlnR*3-Leu-Ser-NH2 [I-140]	≤ 1000 nM	–
Ac-PL3-Asp-Npg-B5-Asp-3COOHF-Ala-Ala-Phe-sAla*3-PyrS2-3Thi-BztA-TriAzLys*3-NH2 [I-24]	1000 to 5000 nM	–
Ac-PL3-Asp-Npg-B5-Asp-3COOHF-Aib-Ala-Phe-TriAzLys*3-PyrS2-3Thi-BztA-sCH2S*3-Ala-NH2 [I-262]	≤ 1000 nM	IC50 (COLO320DM cells): ≤ 10000 nM
Ac-PL3-Asp-Npg-B5-Asp-3COOHF-Aib-Ala-Phe-Lys*3-PyrS2-3Thi-BztA-GlnR*3-Glu-Ala-NH2 [I-342]	–	IC50 [1, 7]: ≤ 1000 nM
Ac-PL3-Asp-Npg-B5-Asp-3COOHF-Cpg-Ala-Phe-Lys*3-PyrS2-2F3MeF-BztA-GlnR*3-Leu-Ser-NH2 [I-139]	≤ 1000 nM	–
Ac-PL3-Asp-Npg-B5-Asp-3COOHF-Ala-Ala-Phe-Lys*3-PyrS2-3Thi-BztA-GlnR*3-Prool [I-64]	1000 to 5000 nM	IC50 (COLO320DM cells): 10000 to 20000 nM
Ac-PL3-Asp-Npg-B5-Asp-3COOHF-Npg-Ala-Phe-Lys*3-PyrS2-2F3MeF-BztA-GlnR*3-Leu-NH2 [I-109]	1000 to 5000 nM	IC50 [5]: > 10000 nM
Ac-PL3-Asp-Npg-B5-Asp-3COOHF-Ala-Ala-Phe-iPrLys*3-PyrS2-3Thi-BztA-hGlnR*3-Ala-NH2 [I-187]	> 5000 nM	–
